Laboratory results reported in the supplement of paper PMC11061612.

Columns and labels:
Assay in all cases: combination Emax (second highest fraction inhibited in the dose matrix, 72 h); higher = more inhibition; extreme values may be limits of the assay
[1] = system: JHH-6 (Hepatocellular Carcinoma)
Outline: (§1)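 After 24 hours at 37°C and 5% CO2 in 1536-well plates, cells in DMEM/F12 or RPMI plus 10% FBS received two-drug dose matrices for 72 hours. Viability came from CellTiter-Glo 2.0 luminescence and was scaled as inhibition, anchored at 0 by vehicle wells and at 1 by blank wells. Combination Emax is taken as the second-highest inhibition in the matrix, and Bliss excess as the observed combination effect less EA + EB − EA·EB, with EA and EB the single-agent effects.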

[2] = system: MEG-01 (Chronic Myelogenous Leukemia)
Outline: as §1

[3] = system: SNU-61 (Colorectal Carcinoma)
Outline: as §1

[4] = system: HOP-92 (Non-Small Cell Lung Carcinoma)
Outline: as §1

CS1 (Chondrosarcoma) = system: CS1 (Chondrosarcoma)
Outline: as §1

[5] = system: GDM-1 (Acute Myeloid Leukemia)
Outline: as §1

[6] = system: KG-1 (Acute Myeloid Leukemia)
Outline: as §1

[7] = system: U-118-MG (Low Grade Glioma)
Outline: as §1

[8] = system: HCC1143 (Breast Carcinoma)
Outline: as §1

A172 (Glioblastoma) = system: A172 (Glioblastoma)
Outline: as §1

D-392MG (Glioblastoma) = system: D-392MG (Glioblastoma)
Outline: as §1

[9] = system: PA-TU-8902 (Pancreatic Carcinoma)
Outline: as §1

| SMILES | combination Emax [1] | combination Emax [2] | combination Emax [3] | combination Emax [4] | combination Emax (CS1 (Chondrosarcoma)) | combination Emax [5] | combination Emax [6] | combination Emax [7] | combination Emax [8] | combination Emax (A172 (Glioblastoma)) | combination Emax (D-392MG (Glioblastoma)) | combination Emax [9] |
| --- | --- | --- | --- | --- | --- | --- | --- | --- | --- | --- | --- | --- |
| CN(CCO)CC[C@H](CSc1ccccc1)Nc1ccc(S(=O)(=O)NC(=O)c2ccc(N3CCC([C@@H](O)c4ccccc4-c4ccc(Cl)cc4)CC3)cc2)cc1S(=O)(=O)C(F)(F)F [AZD4320] + CN(C)CCCOc1ccc(-c2ccc3ncc4c(c3c2)n(C2CCOCC2)c(=O)n4C)cn1 [AZD0156] (first compound max 1 µM, 7x7, partner max 1 µM) | 0.129 | 0.898 | 0.11 | 0.899 | 0.427 | 1 | 0.952 | 0.388 | 0.252 | 0.176 | 0.218 | 0.0883 |
| CN(CCO)CC[C@H](CSc1ccccc1)Nc1ccc(S(=O)(=O)NC(=O)c2ccc(N3CCC([C@@H](O)c4ccccc4-c4ccc(Cl)cc4)CC3)cc2)cc1S(=O)(=O)C(F)(F)F [AZD4320] + CCN(CCO)CCCOc1ccc2c(Nc3cc(CC(=O)Nc4cccc(F)c4)[nH]n3)ncnc2c1 [AZD2811] (first compound max 1 µM, 7x7, partner max 1 µM) | 0.391 | 0.93 | 0.126 | 0.968 | 0.683 | 1 | 0.966 | 0.487 | 0.304 | 0.457 | 0.729 | 0.189 |
| CC(=O)Nc1cccc(-n2c(=O)n(C3CC3)c(=O)c3c(Nc4ccc(I)cc4F)n(C)c(=O)c(C)c32)c1 [Trametinib] + Cc1nc(-c2cn3c(n2)-c2ccc(-c4cnn(C(C)(C)C(N)=O)c4)cc2OCC3)n(C(C)C)n1 [Taselisib] (first compound max 1 µM, 7x7, partner max 10 µM) | 0.636 | 0.953 | 0.672 | 0.988 | 0.878 | 0.88 | 0.412 | 0.757 | 0.763 | 0.761 | 0.709 | 0.724 |
| Cc1c2c(nn1C)CSCc1cc(n(C)n1)CSc1cc(c3ccccc3c1)OCCCc1c(C(=O)O)n(C)c3c-2c(Cl)ccc13 [AZD5991] + Cn1cnc2c(F)c(Nc3ccc(Br)cc3Cl)c(C(=O)NOCCO)cc21 [Selumetinib] (first compound max 1 µM, 7x7, partner max 3 µM) | 0.253 | 0.872 | 0.464 | 0.456 | 0.224 | 0.374 | 1 | 0.326 | 0.383 | 0.316 | 0.364 | 0.293 |
| Cc1c2c(nn1C)CSCc1cc(n(C)n1)CSc1cc(c3ccccc3c1)OCCCc1c(C(=O)O)n(C)c3c-2c(Cl)ccc13 [AZD5991] + Cc1cc2ncnn2cc1Nc1ncc2c(n1)n(C1CCOCC1)c(=O)n2C [AZD7648] (first compound max 1 µM, 7x7, partner max 10 µM) | 0.219 | 0.468 | 0.19 | 0.448 | 0.207 | 0.619 | 1 | 0.425 | 0.267 | 0.322 | 0.271 | 0.321 |
| Cc1c2c(nn1C)CSCc1cc(n(C)n1)CSc1cc(c3ccccc3c1)OCCCc1c(C(=O)O)n(C)c3c-2c(Cl)ccc13 [AZD5991] + C[C@@H](Nc1cc(F)cc(F)c1)c1cc(C(=O)N(C)C)cc2c(=O)cc(N3CCOCC3)oc12 [AZD8186] (first compound max 1 µM, 7x7, partner max 3 µM) | 0.236 | 0.416 | 0.168 | 0.587 | 0.235 | 0.767 | 1 | 0.45 | 0.342 | 0.304 | 0.301 | 0.173 |
| CN(C)CCCOc1ccc(-c2ccc3ncc4c(c3c2)n(C2CCOCC2)c(=O)n4C)cn1 [AZD0156] + CCN(CCO)CCCOc1ccc2c(Nc3cc(CC(=O)Nc4cccc(F)c4)[nH]n3)ncnc2c1 [AZD2811] (first compound max 1 µM, 7x7, partner max 1 µM) | 0.241 | 0.329 | 0.0613 | 0.383 | 0.301 | 0.81 | 0.328 | 0.194 | 0.302 | 0.499 | 0.0413 | 0.0699 |
| Cc1cc2ncnn2cc1Nc1ncc2c(n1)n(C1CCOCC1)c(=O)n2C [AZD7648] + C=CCn1c(=O)c2cnc(Nc3ccc(N4CCN(C)CC4)cc3)nc2n1-c1cccc(C(C)(C)O)n1 [AZD1775] (first compound max 10 µM, partner max 1 µM) | 0.311 | 0.923 | 0.401 | 0.613 | 0.541 | 0.894 | 0.452 | 0.435 | 0.603 | 0.617 | 0.397 | 0.348 |
| COc1cccc(OCCCN)c1-c1cc(Nc2cnc(C#N)cn2)n[nH]1 [Prexasertib] + Cc1cc2ncnn2cc1Nc1ncc2c(n1)n(C1CCOCC1)c(=O)n2C [AZD7648] (first compound max 1 µM, 7x7, partner max 10 µM) | 0.389 | 0.926 | 0.466 | 0.663 | 0.727 | 0.924 | 0.912 | 0.686 | 0.883 | 0.728 | 0.519 | 0.598 |
| COc1cccc(OCCCN)c1-c1cc(Nc2cnc(C#N)cn2)n[nH]1 [Prexasertib] + C=CCn1c(=O)c2cnc(Nc3ccc(N4CCN(C)CC4)cc3)nc2n1-c1cccc(C(C)(C)O)n1 [AZD1775] (first compound max 1 µM, partner max 1 µM) | 0.599 | 0.939 | 0.515 | 0.7 | 0.735 | 0.945 | 0.916 | 0.743 | 0.925 | 0.832 | 0.66 | 0.605 |
| Cc1cc2ncnn2cc1Nc1ncc2c(n1)n(C1CCOCC1)c(=O)n2C [AZD7648] + O=C(c1cc(Cc2n[nH]c(=O)c3ccccc23)ccc1F)N1CCN(C(=O)C2CC2)CC1 [Olaparib] (first compound max 10 µM, 7x7, partner max 10 µM) | 0.158 | 0.22 | 0.0443 | 0.292 | 0.221 | 0.628 | 0.131 | 0.394 | 0.148 | 0.468 | 0.144 | 0.112 |
| Cc1c2c(nn1C)CSCc1cc(n(C)n1)CSc1cc(c3ccccc3c1)OCCCc1c(C(=O)O)n(C)c3c-2c(Cl)ccc13 [AZD5991] + C=CCn1c(=O)c2cnc(Nc3ccc(N4CCN(C)CC4)cc3)nc2n1-c1cccc(C(C)(C)O)n1 [AZD1775] (first compound max 1 µM, partner max 1 µM) | 0.326 | 0.927 | 0.49 | 0.807 | 0.563 | 0.961 | 1 | 0.339 | 0.797 | 0.609 | 0.417 | 0.31 |
| CN(C)CCCOc1ccc(-c2ccc3ncc4c(c3c2)n(C2CCOCC2)c(=O)n4C)cn1 [AZD0156] + C[C@@H]1COCCN1C2=NC(=NC(=C2)C3(CC3)[S@](=N)(=O)C)C4=C5C=CNC5=NC=C4 [AZD6738] (first compound max 1 µM, 7x7, partner max 10 µM) | 0.337 | 0.912 | 0.299 | 0.665 | 0.674 | 0.52 | 0.711 | 0.528 | 0.871 | 0.717 | 0.374 | 0.41 |
| Cc1cc2ncnn2cc1Nc1ncc2c(n1)n(C1CCOCC1)c(=O)n2C [AZD7648] + CCN(CCO)CCCOc1ccc2c(Nc3cc(CC(=O)Nc4cccc(F)c4)[nH]n3)ncnc2c1 [AZD2811] (first compound max 10 µM, 7x7, partner max 1 µM) | 0.339 | 0.507 | 0.254 | 0.41 | 0.343 | 0.859 | 0.386 | 0.317 | 0.403 | 0.611 | 0.329 | 0.309 |
| Cc1c2c(nn1C)CSCc1cc(n(C)n1)CSc1cc(c3ccccc3c1)OCCCc1c(C(=O)O)n(C)c3c-2c(Cl)ccc13 [AZD5991] + CC1(C)CCC(CN2CCN(c3ccc(C(=O)NS(=O)(=O)c4ccc(NCC5CCOCC5)c([N+](=O)[O-])c4)c(Oc4cnc5[nH]ccc5c4)c3)CC2)=C(c2ccc(Cl)cc2)C1 [Venetoclax] (first compound max 1 µM, 7x7, partner max 1 µM) | 0.0668 | 0.837 | 0.155 | 0.44 | 0.16 | 0.999 | 1 | 0.196 | 0.252 | 0.268 | 0.791 | 0.139 |
| Cc1c2c(nn1C)CSCc1cc(n(C)n1)CSc1cc(c3ccccc3c1)OCCCc1c(C(=O)O)n(C)c3c-2c(Cl)ccc13 [AZD5991] + C[C@@H]1COCCN1C2=NC(=NC(=C2)C3(CC3)[S@](=N)(=O)C)C4=C5C=CNC5=NC=C4 [AZD6738] (first compound max 1 µM, 7x7, partner max 10 µM) | 0.416 | 0.931 | 0.349 | 0.723 | 0.591 | 0.91 | 1 | 0.506 | 0.827 | 0.679 | 0.427 | 0.26 |
| Cc1c2c(nn1C)CSCc1cc(n(C)n1)CSc1cc(c3ccccc3c1)OCCCc1c(C(=O)O)n(C)c3c-2c(Cl)ccc13 [AZD5991] + CCN(CCO)CCCOc1ccc2c(Nc3cc(CC(=O)Nc4cccc(F)c4)[nH]n3)ncnc2c1 [AZD2811] (first compound max 1 µM, 7x7, partner max 1 µM) | 0.257 | 0.758 | 0.254 | 0.689 | 0.315 | 0.949 | 1 | 0.342 | 0.371 | 0.474 | 0.403 | 0.212 |
| CN(CCO)CC[C@H](CSc1ccccc1)Nc1ccc(S(=O)(=O)NC(=O)c2ccc(N3CCC([C@@H](O)c4ccccc4-c4ccc(Cl)cc4)CC3)cc2)cc1S(=O)(=O)C(F)(F)F [AZD4320] + C=CCn1c(=O)c2cnc(Nc3ccc(N4CCN(C)CC4)cc3)nc2n1-c1cccc(C(C)(C)O)n1 [AZD1775] (first compound max 1 µM, partner max 1 µM) | 0.271 | 0.994 | 0.349 | 0.974 | 0.647 | 1 | 1 | 0.376 | 0.588 | 0.491 | 0.763 | 0.296 |
